From US20030036564A1, “Control of lyme disease spirochete” (priority 2001, published 2003) come the findings set out here.

The experiment has as its system Borrelia burgdorferi strain B31. The experiment in a line: Antibiotic bait diet fed no-choice for seven days to mice infected with Lyme disease spirochete; ear punch biopsy culture and dark field microscopy. It counts as in vivo, laboratory mice (Swiss-Webster). The note with it: ear punch biopsy culture, dark field microscopy. The procedure:
The diet compositions described in Examples 1-3 were fed separately on a no-choice basis to separate groups of laboratory mice (Swiss-Webster) infected with the Lyme disease spirochete Borrelia burgdorferi. […]. The mice had all been previously infected with B. burgdorferi strain B31 by subcutaneous injection followed by a minimum 21-day incubation period. To confirm that the mice were positive for the spirochete, a modified ear punch biopsy was performed (Sinsky and Piesman, 1989, J. of Clin. Micro. 27:1723-1727, CDC 1997) on each mouse and the biopsy incubated in a modified BSK-H media for 7 days and viewed under dark field microscopy. The prepared diets were fed to individually housed mice on a no-choice basis and water was offered ad libitum. Consumption was recorded each day and additional feed was added. Diet was presented to the mice for seven consecutive days. On the day following the last day feed was offered, mice were anesthetized with Halothane and ear punch biopsy was performed. The biopsies were incubated in modified BSK-H media for seven days at 34±1° C. Dark field microscopy was then performed on an American Optics 1031 microscope with an American Optics dark field 1096 condenser to determine the presence of spirochetes. Cultures were considered positive if spirochete growth occurred within five weeks of inoculation (Wilske and Preac-Mursic, Aspects of Lyme Borreliosis, Springer-Verlag, New York 1993), viewing the cultures at seven-day increments. A slide was considered negative if no spirochetes were found after searching 100 fields at 400× (Ginsberg and Ewing, J. of Med. Entomology, 26: 183-189, 1989).

Where [1] appears, read: Treatment level 1, chloramphenicol 500 μg/g bait.
Where [2] appears, read: Treatment level 2, chloramphenicol 1000 μg/g bait.
The mark [3] stands for this setting: Treatment level 3, thiamphenicol 1000 μg/g bait.

Structures are written as SMILES.

In the case of `O=C(N[C@H](CO)[C@H](O)c1ccc([N+](=O)[O-])cc1)C(Cl)Cl` [CHLORAMPHENICOL, chloramphenicol], under setting [1], the “NUMBER OF MICE TESTING NEGATIVE FOR SPIROCHETE” value is on record as 10/10 and the “PERCENTAGE OF MICE TESTING NEGATIVE FOR SPIROCHETE” value is given as “(100%)”. For the same compound, under setting [2], the “NUMBER OF MICE TESTING NEGATIVE FOR SPIROCHETE” value is reported as 10/10 and the “PERCENTAGE OF MICE TESTING NEGATIVE FOR SPIROCHETE” value is listed as “(100%)”.

`CS(=O)(=O)c1ccc([C@@H](O)[C@@H](CO)NC(=O)C(Cl)Cl)cc1` [THIAMPHENICOL, thiamphenicol]: under setting [3], the “NUMBER OF MICE TESTING NEGATIVE FOR SPIROCHETE” value is listed as 10/10 and the “PERCENTAGE OF MICE TESTING NEGATIVE FOR SPIROCHETE” value was “(100%)”.
